# Earlier results in patent publication US20230332232A1, “COMPOSITIONS AND METHODS FOR DIAGNOSING AND TREATING A DYSTONIA” (Duke University, priority 2020, published 2023).
# Experiments:
# [1] = test system: DYT1 patient-derived fibroblasts; details: cited from earlier work
# [2] = test system: ΔE Torsin1a; details: ΔE Torsin1a abnormal punctate pattern; cited from earlier work
structure (smiles),measurement,setting,value
"O=C(O)CCCc1ccccc1 [PBA, phenylbutyric acid]",indicators of UPR activation,[1],reduces indicators of UPR activation
same,punctate pathology,[2],significantly reduced punctate pathology
